Results taken from article PMC4091765 (Methods in molecular biology (Clifton, N.J.), 2013).
Blank lines part the entries; values can stand above or below the molecule they belong to.

Tests used:
PDE9A = PDE9A (Homo sapiens, UniProt O76083); assay: PDE assay using isothermal titration calorimetry; conditions: ITC; for Ki: compound as inhibitor of PDE9; for Km: compound as substrate
PDEs = assay: ITC PDE assays, summary over the PDE panel; conditions: result in words
PDE8A = PDE8A (Homo sapiens, UniProt O60658); assay: PDE assay using isothermal titration calorimetry; conditions: ITC, compound as substrate; n.h. = not hydrolyzed
PDE5 = conditions: ITC, cited from earlier work
PDE1A = conditions: ITC, compound as substrate; cited from earlier work
PDE1B = conditions: ITC, compound as substrate; cited from earlier work
PDE1C = conditions: ITC, compound as substrate; cited from earlier work
PDE2A = conditions: ITC, compound as substrate; cited from earlier work
PDE4D = conditions: ITC, compound as substrate; n.h. = not hydrolyzed; cited from earlier work
PDE6 = conditions: ITC, compound as substrate, cited from earlier work
PDE10 = conditions: ITC, compound as substrate; cited from earlier work

Chain of PDE8A (O60658 whole entry, species assumed): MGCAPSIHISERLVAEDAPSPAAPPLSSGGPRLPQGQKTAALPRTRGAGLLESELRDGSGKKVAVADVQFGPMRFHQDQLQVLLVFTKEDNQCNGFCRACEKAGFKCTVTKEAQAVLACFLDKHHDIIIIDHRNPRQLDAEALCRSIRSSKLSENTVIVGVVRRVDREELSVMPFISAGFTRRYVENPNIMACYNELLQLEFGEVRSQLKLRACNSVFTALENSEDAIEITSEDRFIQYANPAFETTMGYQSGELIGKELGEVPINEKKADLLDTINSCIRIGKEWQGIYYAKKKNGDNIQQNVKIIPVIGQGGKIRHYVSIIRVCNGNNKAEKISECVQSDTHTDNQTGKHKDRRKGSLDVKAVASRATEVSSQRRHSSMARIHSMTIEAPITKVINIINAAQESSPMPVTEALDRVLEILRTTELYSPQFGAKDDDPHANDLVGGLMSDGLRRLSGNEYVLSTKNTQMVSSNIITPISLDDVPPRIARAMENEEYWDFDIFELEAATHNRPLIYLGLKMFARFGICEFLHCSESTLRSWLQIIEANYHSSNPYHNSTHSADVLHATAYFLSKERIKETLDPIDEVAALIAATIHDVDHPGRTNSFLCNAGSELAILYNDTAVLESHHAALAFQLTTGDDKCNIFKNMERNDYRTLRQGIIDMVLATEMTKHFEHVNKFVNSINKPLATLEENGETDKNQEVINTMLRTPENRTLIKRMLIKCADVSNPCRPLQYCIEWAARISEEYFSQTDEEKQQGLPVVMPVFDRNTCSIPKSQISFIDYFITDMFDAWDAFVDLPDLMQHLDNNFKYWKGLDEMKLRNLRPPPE
Chain of PDE9A (O76083 whole entry, species assumed): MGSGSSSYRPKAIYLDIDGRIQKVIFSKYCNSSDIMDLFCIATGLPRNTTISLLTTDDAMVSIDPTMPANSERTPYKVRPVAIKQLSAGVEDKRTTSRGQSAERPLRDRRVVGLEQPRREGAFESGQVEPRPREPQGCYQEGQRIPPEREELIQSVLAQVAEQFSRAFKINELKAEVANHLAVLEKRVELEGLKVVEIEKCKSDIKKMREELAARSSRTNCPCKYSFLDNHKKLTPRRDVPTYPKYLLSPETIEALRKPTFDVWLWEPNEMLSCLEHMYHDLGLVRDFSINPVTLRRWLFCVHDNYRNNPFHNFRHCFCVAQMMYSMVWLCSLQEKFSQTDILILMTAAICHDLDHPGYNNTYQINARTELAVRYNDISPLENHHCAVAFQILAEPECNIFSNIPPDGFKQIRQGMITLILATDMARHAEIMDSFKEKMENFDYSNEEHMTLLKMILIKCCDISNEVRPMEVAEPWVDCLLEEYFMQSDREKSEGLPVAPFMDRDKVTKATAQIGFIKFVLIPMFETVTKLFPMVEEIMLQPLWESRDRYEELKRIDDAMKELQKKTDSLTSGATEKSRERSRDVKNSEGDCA

SMILES: Nc1nc2c(nc(Sc3ccc(Cl)cc3)n2C2O[C@@H]3COP(=O)(O)O[C@H]3[C@H]2O)c(=O)[nH]1 (stereo in doubt) [8-pCPT-cGMP]
Ki (PDE9A): 1.29 µM

SMILES: COC1C2OP(O)(=S)OCC2OC1n1c(Sc2ccc(Cl)cc2)nc2c(N)ncnc21 (stereo not shown) [Sp-8-pCPT-2-0-Me-cAMPS]
substrate property for PDEs (PDEs; any PDE of the panel): not a substrate for any PDE | inhibition of PDEs (PDEs; several PDEs of the panel): quite a good inhibitor of several of them

SMILES: Nc1ncnc2c1nc(Br)n2[C@@H]1O[C@@H]2COP(=O)(O)O[C@H]2[C@H]1O [8Br-cAMP]
Km (PDE9A): 5.99 µM

SMILES: CO[C@@H]1[C@@H]2OP(=O)(O)OC[C@H]2O[C@H]1n1c(Sc2ccc(Cl)cc2)nc2c(N)ncnc21 [8-pCPT-2-0-Me cAMP]
substrate property for PDE5 (PDE5; result in words): rather good substrate for PDE5

Continued, in another order:

Km (PDE8A): 0.55 µM | Ki (PDE9A): 0.77 µM
SMILES: Nc1nc2c(nc(Br)n2[C@@H]2O[C@@H]3COP(=O)(O)O[C@H]3[C@H]2O)c(=O)[nH]1 [8-Br-cGMP]

Km (PDE8A): n.h. | Vmax (PDE8A): n.h. | Km (PDE9A): 0.2 µM
SMILES: Nc1nc2c(ncn2[C@@H]2O[C@@H]3COP(=O)(O)O[C@H]3[C@H]2O)c(=O)[nH]1 [cGMP]
Km (PDE1A): 8.2 µM | Vmax (PDE1A): 20 ± 1.0 µM/min/mg | Km (PDE1B): 5.4 µM | Vmax (PDE1B): 2.6 ± 0.7 µM/min/mg | Km (PDE1C): 4.6 µM | Vmax (PDE1C): 1.4 ± 1.0 µM/min/mg | Km (PDE2A): 31 µM | Vmax (PDE2A): 176 ± 31 µM/min/mg | Km (PDE4D): n.h. | Vmax (PDE4D): n.h. | Km (PDE5; compound as substrate): 2 µM | Vmax (PDE6; Vmax normalized, cGMP as substrate = 1): 1.0 +/− 1.1 | Km (PDE6): 10 µM | Km (PDE10): 1.1 µM | Vmax (PDE10): 1.6 ± 0.11 µM/min/mg
